Where a name gives a salt, the structure may show the parent alone.
Biological target: RIPK1 (recombinant GST-RIPK1 kinase domain, residues 1-327) (Homo sapiens (Human), UniProt Q13546)
Assay: RIPK1-ADP-Glo Enzymatic Assay
Type: biochemical
Details: ADP-Glo; 25 nM GST-RIPK1, 300 μM ATP; assay lower limit ~25 nM; read-out: RIPK1 V0 Ec50
Method in brief: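 GST-tagged kinase domain (residues 1-327, Sf21-expressed), 25 nM, pre-incubated 30 min with compound at ambient temperature, then reacted 150 min with 300 μM ATP and 3 μM dephosphorylated MBP in HEPES pH 7.3 buffer. ADP measured by ADP-Glo luminescence; EC50 from ten-point titration (top 100000 nM), four-parameter fit.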

RIPK1 (recombinant GST-RIPK1 kinase domain, residues 1-327), sequence (Q13546 1-327): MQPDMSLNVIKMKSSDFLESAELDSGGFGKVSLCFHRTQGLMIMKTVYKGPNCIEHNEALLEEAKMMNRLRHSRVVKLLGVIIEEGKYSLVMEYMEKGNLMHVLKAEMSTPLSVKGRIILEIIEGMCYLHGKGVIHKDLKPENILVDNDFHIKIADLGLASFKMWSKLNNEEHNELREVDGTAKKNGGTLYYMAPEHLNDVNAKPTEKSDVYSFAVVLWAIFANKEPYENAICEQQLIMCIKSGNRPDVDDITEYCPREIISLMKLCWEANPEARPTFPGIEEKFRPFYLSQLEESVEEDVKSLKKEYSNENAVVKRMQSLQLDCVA

Compound	EC50
NC(=O)c1nc(N2CCC3(CC2)O[C@@H]2CC[C@@H](c4cc(F)cc(F)c4)N2C3=O)ncc1F [Example 4.184, 2-[(5′S,7a′R)-5′-(3,5-difluorophenyl)-3′-oxotetrahydro-1H,3′H-spiro[piperidine-4,2′-pyrrolo[2,1-b] [1,3]oxazol]-1-yl]-5-fluoropyrimidine-4-carboxamide]	< 25 nM
COc1ccnc(N2CCC3(CC2)O[C@@H]2CC[C@@H](c4cc(F)cc(F)c4)N2C3=O)n1 [Example 4.10, (5′S,7a′R)-5′-(3,5-difluorophenyl)-1-(4-methoxypyrimidin-2-yl)tetrahydro-3′H-spiro[piperidine-4,2′-pyrrolo[2,1-b] [1,3]oxazol]-3′-one]	35.5 nM
O=C1N2[C@@H](CO[C@H]2c2cc(F)cc(F)c2)CC12CCN(c1ccnc3c(F)cnn13)CC2 (stereo in doubt) [Example 4.148, 3′-(3,5-difluorophenyl)-1-(3-fluoropyrazolo[1,5-a]pyrimidin-7-yl)dihydro-1′H,3′H,5′H-spiro[piperidine-4,6′-pyrrolo[1,2-c] [1,3]oxazol]-5′-one]	< 25 nM
Cc1nc(N2CCC3(CC2)C[C@@H]2OC[C@@H](c4ccccc4)N2C3=O)ccc1C#N [Example 4.78, 2-methyl-6-[(3′R,7a′S)-5′-oxo-3′-phenyltetrahydro-1H,5′H-spiro[piperidine-4,6′-pyrrolo[2,1-b] [1,3]oxazol]-1-yl]pyridine-3-carbonitrile]	58.7 nM
Cc1cccc(C(=O)N2CCC3(CC2)O[C@@H]2CC[C@@H](c4cc(F)cc(F)c4)N2C3=O)n1 [Example 6.13, (5′S,7a′R)-5′-(3,5-difluorophenyl)-1-(6-methylpyridine-2-carbonyl)tetrahydro-3′H-spiro[piperidine-4,2′-pyrrolo[2,1-b] [1,3]oxazol]-3′-one]	60 nM
O=C1N2[C@@H](CC[C@H]2c2cc(F)cc(F)c2)OC12CCN(c1nccn3cncc13)CC2 [Example 13.14, (5′S,7a′R)-5′-(3,5-difluorophenyl)-1-(imidazo[1,5-a]pyrazin-8-yl)tetrahydro-3′H-spiro[piperidine-4,2′-pyrrolo[2,1-b]oxazol]-3′-one, TFA salt]	487 nM
N#Cc1ccc(N2CCC3(CC2)O[C@@H]2CC[C@@H](c4cc(F)cc(F)c4)N2C3=O)n2ncnc12 [Example 14.2, 5-((5′S,7a′R)-5′-(3,5-difluorophenyl)-3′-oxotetrahydro-3′H-spiro[piperidine-4,2′-pyrrolo[2,1-b]oxazol]-1-yl)-[1,2,4]triazolo[1,5-a]pyridine-8-carbonitrile, TFA salt]	< 25 nM
O=C1N2[C@@H](CC[C@H]2c2ccccc2)OC12CCN(c1ccnc3c(F)cnn13)CC2 [Example 4.1, (5′S,7a′R)-1-(3-fluoropyrazolo[1,5-a]pyrimidin-7-yl)-5′-phenyltetrahydro-3′H-spiro[piperidine-4,2′-pyrrolo[2,1-b]oxazol]-3′-one]	< 25 nM
O=C(c1ccccc1)N1CCC2(CC1)O[C@@H]1[C@@H](O)C[C@@H](c3ccccc3)N1C2=O [Example 6.136]	136 nM
O=C1N2[C@@H](CC[C@H]2c2ccccc2)OC12CCN(c1ccc(-c3ncco3)c3ccnn13)CC2 [Example 21.22, (5′S,7a′R)-1-[4-(1,3-oxazol-2-yl)pyrazolo[1,5-a]pyridin-7-yl]-5′-phenyltetrahydro-3′H-spiro[piperidine-4,2′-pyrrolo[2,1-b][1,3]oxazol]-3′-one]	< 25 nM
N#CC1(NC(=O)c2nc(N3CCC4(CC3)O[C@@H]3CC[C@@H](c5cc(F)cc(F)c5)N3C4=O)ncc2F)CC1 [Example 7.12, N-(1-cyanocyclopropyl)-2-[(5′S,7a′R)-5′-(3,5-difluorophenyl)-3'-oxotetrahydro-1H,3′H-spiro[piperidine-4,2′-pyrrolo[2,1-b][1,3]oxazol]-1-yl]-5-fluoropyrimidine-4-carboxamide]	165 nM
CCOC(=O)c1ccc(N2CCC3(CC2)O[C@@H]2CC[C@@H](c4ccccc4)N2C3=O)nc1 [Example 4.200, ethyl 6-[(5′S,7a′R)-3′-oxo-5′-phenyltetrahydro-1H,3′H-spiro[piperidine-4,2′-pyrrolo[2,1-b] [1,3]oxazol]-1-yl]pyridine-3-carboxylate]	52.5 nM
O=C1N2[C@@H](CC[C@H]2c2ccccc2)OC12CCN(c1ncc(F)cc1C(F)F)CC2 [Example 11.25, (5′S,7a′R)-1-[3-(difluoromethyl)-5-fluoropyridin-2-yl]-5′-phenyltetrahydro-3′H-spiro[piperidine-4,2′-pyrrolo[2,1-b][1,3]oxazol]-3′-one]	61.1 nM
COC1(C)CN(C(=O)c2nc(N3CCC4(CC3)O[C@@H]3CC[C@@H](c5cc(F)cc(F)c5)N3C4=O)ncc2F)C1 [Example 7.6, (5′S,7a′R)-5′-(3,5-difluorophenyl)-1-[5-fluoro-4-(3-methoxy-3-methylazetidine-1-carbonyl)pyrimidin-2-yl]tetrahydro-3′H-spiro[piperidine-4,2′-pyrrolo[2,1-b][1,3]oxazol]-3′-one]	271 nM
O=C1N2[C@@H](CC[C@H]2c2ccccc2)OC12CCN(c1cccc3ncnn13)CC2F (single isomer, unassigned) [Example 13.17, (3[R or S], 4[S or R], 5′S,7a′R)-1-([1,2,4]triazolo[1,5-a]pyridin-5-yl)-3-fluoro-5′-phenyltetrahydro-3′H-spiro[piperidine-4,2′-pyrrolo[2,1-b]oxazol]-3′-one, TFA salt]	< 25 nM
O=C1N2[C@@H](CC[C@H]2c2ccccc2)OC12CCN(c1ccn(-c3cnccn3)n1)CC2 [Example 11.5, (5′S,7a′R)-5′-phenyl-1-[1-(pyrazin-2-yl)-1H-pyrazol-3-yl]tetrahydro-3′H-spiro[piperidine-4,2′-pyrrolo[2,1-b][1,3]oxazol]-3′-one]	67.7 nM
CC(C)(C)NC(=O)c1nc(N2CCC3(CC2)O[C@@H]2CC[C@@H](c4cc(F)cc(F)c4)N2C3=O)ncc1F [Example 7.15, N-tert-butyl-2-[(5′S,7a′R)-5′-(3,5-difluorophenyl)-3′-oxotetrahydro-1H,3′H-spiro[piperidine-4,2′-pyrrolo[2,1-b][1,3]oxazol]-1-yl]-5-fluoropyrimidine-4-carboxamide]	171 nM
O=C1N2[C@@H](CC[C@H]2c2cc(F)cc(F)c2)OC12CCN(c1ccnc3c(F)cnn13)CC2 [Example 3.1, (5′S,7a′R)-5′-(3,5-difluorophenyl)-1-(3-fluoropyrazolo[1,5-a]pyrimidin-7-yl)tetrahydro-3′H-spiro[piperidine-4,2′-pyrrolo[2,1-b]oxazol]-3′-one]	< 25 nM
Cn1cc(C(=O)N2CCC3(CC2)O[C@@H]2CC[C@@H](c4cc(F)cc(F)c4)N2C3=O)cn1 [Example 5.53, (5′S,7a′R)-5′-(3,5-difluoro-phenyl)-1-(1-methyl-1H-pyrazole-4-carbonyl)tetra-hydro-3′H-spiro[piperidine-4,2′-pyrrolo[2,1-b]oxazol]-3′-one]	509 nM
N#Cc1cnn2c(N3CCC4(CC3)O[C@@H]3CC[C@@H](c5ccccc5)N3C4=O)ncnc12 [Example 4.218, 4-[(5′S,7a′R)-3′-oxo-5′-phenyltetrahydro-1H,3′H-spiro[piperidine-4,2′-pyrrolo[2,1-b] [1,3]oxazol]-1-yl]pyrazolo[1,5-a] [1,3,5]triazine-8-carbonitrile]	< 25 nM
COc1cccc([C@@H]2CC[C@H]3OC4(CCN(c5ccc(C#N)c6ncnn56)CC4)C(=O)N32)c1 [Example 20.2, 5-[(5′S,7a′R)-5′-(3-methoxyphenyl)-3′-oxotetrahydro-1H,3′H-spiro[piperidine-4,2′-pyrrolo[2,1-b][1,3]oxazol]-1-yl][1,2,4]triazolo[1,5-a]pyridine-8-carbonitrile]	25 nM
NC(=O)c1ccc(N2CCC3(CC2)O[C@@H]2CC[C@@H](c4cccc(F)c4)N2C3=O)n2ncnc12 [Example 4.152, 5-[(5′S,7a′R)-5′-(3-fluorophenyl)-3′-oxotetrahydro-1H,3′H-spiro[piperidine-4,2′-pyrrolo[2,1-b] [1,3]oxazol]-1-yl][1,2,4]triazolo[1,5-a] pyridine-8-carboxamide]	< 25 nM
Cc1nc(N2CCC3(CC2)O[C@@H]2CC[C@@H](c4ccccc4)N2C3=O)ncc1-c1ccnn1C [Example 21.8, (5′S,7a′R)-1-[4-methyl-5-(1-methyl-1H-pyrazol-5-yl)pyrimidin-2-yl]-5′-phenyltetrahydro-3′H-spiro[piperidine-4,2′-pyrrolo[2,1-b][1,3]oxazol]-3′-one]	36.6 nM
CCOc1ccc(N2CCC3(CC2)O[C@@H]2CC[C@@H](c4cc(F)cc(F)c4)N2C3=O)n2nccc12 [Example 19.2, (5′S,7a′R)-5′-(3,5-difluorophenyl)-1-(4-ethoxypyrazolo[1,5-a]pyridin-7-yl)tetrahydro-3′H-spiro[piperidine-4,2′-pyrrolo[2,1-b]oxazol]-3′-one, TFA salt]	< 25 nM
C#Cc1ccc(N2CCC3(CC2)O[C@@H]2CC[C@@H](c4ccccc4)N2C3=O)n2ncnc12 [Example 21.24, (5′S,7a′R)-1-(8-ethynyl[1,2,4]triazolo [1,5-a]pyridin-5-yl)-5′-phenyltetrahydro-3′H-spiro[piperidine-4,2′-pyrrolo[2,1-b][1,3]oxazol]-3′-one]	< 25 nM
Cc1nc(N2CCC3(CC2)O[C@@H]2CC[C@@H](c4cccc(F)c4)N2C3=O)ccc1C#N [Example 4.77, 6-[(5′S,7a′R)-5′-(3-fluorophenyl)-3′-oxotetrahydro-1H,3′H-spiro[piperidine-4,2′-pyrrolo[2,1-b] [1,3]oxazol]-1-yl]-2-methylpyridine-3-carbonitrile]	< 25 nM
O=C(c1ccoc1C(F)(F)F)N1CCC2(CC1)O[C@@H]1CC[C@@H](c3cc(F)cc(F)c3)N1C2=O [Example 6.67, (5′S,7a′R)-5′-(3,5-difluorophenyl)-1-[2-(trifluoromethyl)-furan-3-carbonyl]-tetrahydro-3′H-spiro [piperidine-4,2′-pyrrolo[2,1-b][1,3]-oxazol]-3′-one]	50 nM
